Test results reported in paper PMC10081574, “Evaluation of Antiviral Activity of Gemcitabine Derivatives against Influenza Virus and Severe Acute Respiratory Syndrome Coronavirus 2” (ACS Infectious Diseases, 2023).
“Also recorded” adds a separate entry of the source. Like-named read-outs stand apart in the source and are kept apart here.

Assays:
MDCK cells [1] = test: Cytotoxicity to mock-infected MDCK cells (MTT); settings: for CC10: mock-infected MDCK cells, day 3, MTT, concentration inhibiting cell viability by 10%
[2] = Cytotoxicity to mock-infected MDCK cells (MTT); settings: dog, mock-infected MDCK cells
A/Hong Kong/8/68 (H3N2) [3] = settings: for SI50 HK: ratio of CC50 to EC50; for SI90 HK: ratio of CC10 to EC90
A/Hong Kong/8/68 (H3N2) [4] = test: microbe, parasite or virus in culture; settings: Influenza A virus, H3N2, MDCK, 72 h; for EC50: read-out: EC50 HK; for EC90: read-out: EC90 HK; for viability at 10 µM: read-out: viability of HK-infected cells in library screening
in vitro [5] = settings: dog
[6] = tested on: A/Puerto Rico/8/34 (H1N1); settings: for SI90 PR8: ratio of CC10 to EC90; for SI50 PR8: ratio of CC50 to EC50
[7] = tested on: influenza A and B viruses; test: CPE reduction antiviral assay, values summarised over influenza strains PR8, HK and Lee; type: cell-based, influenza virus; settings: for SI90 against influenza viruses / SI50 against influenza viruses: over PR8, HK and Lee; for EC50: read-out: EC50 against influenza viruses; for SI50 against influenza viruses: CC50/EC50
[8] = tested on: A/Puerto Rico/8/34 (H1N1); test: microbe, parasite or virus in culture; settings: Influenza A virus, 72 h; for EC50 / EC90: H1N1 / PR8, MDCK; for EC50: read-out: EC50 PR8; for EC90: read-out: EC90 PR8; for viability at 10 µM: H1N1|PR8, MDCK, read-out: viability of PR8-infected cells in library screening
[9] = molecular target: polymerase activity of influenza A virus PR8 (Influenza A virus, UniProt P03431); type: cell-based; settings: 11, 33 and 100 μM, 72 h time course
Chain of polymerase activity of influenza A virus PR8 (P03431 whole entry, looked up): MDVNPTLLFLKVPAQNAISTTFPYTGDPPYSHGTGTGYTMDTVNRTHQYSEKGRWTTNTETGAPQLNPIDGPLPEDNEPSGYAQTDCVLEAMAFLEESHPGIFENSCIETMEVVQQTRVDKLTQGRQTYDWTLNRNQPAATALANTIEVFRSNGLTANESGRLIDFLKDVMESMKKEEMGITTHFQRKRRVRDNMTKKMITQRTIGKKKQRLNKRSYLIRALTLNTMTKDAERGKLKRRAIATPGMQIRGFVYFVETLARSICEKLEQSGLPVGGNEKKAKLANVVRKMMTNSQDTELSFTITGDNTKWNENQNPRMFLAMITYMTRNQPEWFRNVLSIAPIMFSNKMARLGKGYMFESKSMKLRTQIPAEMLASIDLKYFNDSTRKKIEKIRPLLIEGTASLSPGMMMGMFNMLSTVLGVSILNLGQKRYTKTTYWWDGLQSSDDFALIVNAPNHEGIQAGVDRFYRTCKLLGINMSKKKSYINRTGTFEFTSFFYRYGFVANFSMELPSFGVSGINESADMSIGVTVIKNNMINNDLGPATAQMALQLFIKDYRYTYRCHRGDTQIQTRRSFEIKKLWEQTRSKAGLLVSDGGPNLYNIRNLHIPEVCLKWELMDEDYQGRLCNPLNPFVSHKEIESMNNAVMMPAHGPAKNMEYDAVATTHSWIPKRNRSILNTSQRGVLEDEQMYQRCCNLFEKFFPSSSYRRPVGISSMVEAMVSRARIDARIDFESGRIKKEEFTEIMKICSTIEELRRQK

B/Lee/40 = test: CPE reduction antiviral assay in Lee-infected MDCK cells (MTT); type: cell-based, influenza B virus; settings: for EC50: viability of infected cells to 50%; for EC90: read-out: EC90 Lee; for SI90 Lee: ratio of CC10 to EC90; for SI50 Lee: ratio of CC50 to EC50
physchem = settings: aqueous buffer
PR8 virus [10] = type: cell-based, influenza A virus
PR8 virus [11] = type: cell-based, influenza A virus; remark: listed apart in the source
Calu-3 cells = test: Cytotoxicity to mock-infected Calu-3 cells (MTT); settings: 100 μM
[12] = mouse, microsomes
SARS-CoV-2 = test: Anti-SARS-CoV-2 immunofluorescence assay (anti-S) in Calu-3 cells; type: cell-based; settings: for SI SARS-CoV-2: ratio of CC50 to EC50
in vitro [13] = settings: human
MDCK cells [14] = tested on: MDCK cells
[15] = male, BALB/c, mouse, in vivo, ip, 5 mg/kg, 30 min
[16] = clinical study; cited from earlier work
[17] = tested on: Caco-2 human colorectal adenocarcinoma cells; set-up: method as in PMID 35310327; settings: 0.1 μM to 1 mM, 3 day incubation; cited from earlier work
[18] = Influenza A virus, PR8, MDCK, span over PR8, HK and Lee, MDCK, read-out: EC90 against influenza viruses
[19] = span over PR8, HK and Lee, MDCK, read-out: EC90 against influenza viruses
[20] = Influenza B virus, MDCK, 72 h, read-out: EC50 Lee, MDCK, MOI 0.001, day 3
[21] = Influenza B virus, MDCK, 72 h, MDCK, MOI 0.001, day 3, read-out: EC50 Lee
[22] = Influenza A virus, span over PR8, HK and Lee, MDCK

NC12CC3CC(CC(C3)C1)C2 [Amantadine, reference compound]
CC10 (MDCK cells [1]): 91.0 ± 34.5 µM | CC50 at 3 days [2]: > 300 µM | SI50 HK (A/Hong Kong/8/68 (H3N2) [3]): > 19.5 | EC50 (A/Hong Kong/8/68 (H3N2) [4]): 15.4 ± 5.1 µM

O=C(Nc1ccn([C@@H]2O[C@H](CO)[C@@H](O)C2(F)F)c(=O)n1)c1cccc(-c2ccccc2)n1 [Compound 2e]
CC50 at 3 days (in vitro [5]): > 300 µM | viability at 3 days, 300 µM (in vitro [5]): > 90% | SI90 PR8 [6]: > 18.1 | SI50 PR8 [6]: > 73.3 | EC90 [7, 18]: 10.7 to 34.3 µM | SI90 against influenza viruses ([7]; CC10/EC90): > 8.7 | EC90 [7, 19]: 14.5 to 34.3 µM | SI90 HK (A/Hong Kong/8/68 (H3N2) [3]): > 20.7 | EC50 [8]: 4.1 ± 0.4 µM | EC90 [8]: 16.6 ± 8.6 µM | inhibition of viral polymerase activity (EGFP expression) [9]: Inhibition of influenza A viral polymerase activity | EC50 (B/Lee/40; [20]): 3.39 ± 0.1 µM | EC90 (B/Lee/40; Influenza B virus, MDCK, 72 h): 34.3 ± 4.3 µM | SI90 Lee (B/Lee/40): > 8.7 | SI50 Lee (B/Lee/40): > 88.5 | solubility (physchem): < 500 µg/mL | reduction of viral NP protein expression (PR8 virus [10]): in a dose-dependent manner | reduction of viral RNA copies (PR8 virus [11]): in a dose-dependent manner | EC50 (A/Hong Kong/8/68 (H3N2) [4]): 5 ± 0.1 µM | EC90 (A/Hong Kong/8/68 (H3N2) [4]): 14.5 ± 0.4 µM

Nc1ccc(C(=O)Nc2ccn([C@@H]3O[C@H](CO)[C@@H](O)C3(F)F)c(=O)n2)nc1 [Compound 2h]
cell death (Calu-3 cells): about 20% | stability in a microsomal condition in vitro [12]: much more stable | CC50 at 3 days (in vitro [5]): > 300 µM | viability at 3 days, 300 µM (in vitro [5]): > 90% | SI90 PR8 [6]: > 24.5 | SI50 PR8 [6]: > 47.2 | EC90 [7, 18]: 10.7 to 34.3 µM | SI90 against influenza viruses ([7]; CC10/EC90): > 8.7 | EC90 [7, 19]: 11.4 to 15.9 µM | reduction of the viral S protein (immunofluorescence) (SARS-CoV-2; 1.2, 3.7, 11.1 and 33.3 μM, 2 days): in a dose-dependent manner | EC50 (SARS-CoV-2; Severe acute respiratory syndrome coronavirus 2, 48 h, Calu-3, MOI 0.05, 2 days): 0.46 µM | SI SARS-CoV-2 (SARS-CoV-2): > 217.4 | SI90 HK (A/Hong Kong/8/68 (H3N2) [3]): > 26.3 | SI50 HK (A/Hong Kong/8/68 (H3N2) [3]): > 59.5 | EC50 [8]: 6.4 ± 0.6 µM | EC90 [8]: 12.2 ± 1 µM | inhibition of viral polymerase activity (EGFP expression) [9]: potently inhibited viral polymerase activity in a dose-dependent manner | EC90 (B/Lee/40; Influenza B virus, 72 h, MDCK, MOI 0.001, day 3, viability of infected cells to 90%): 15.9 ± 1.7 µM | EC50 (B/Lee/40; [21]): 4.1 ± 0.4 µM | SI90 Lee (B/Lee/40): > 18.8 | SI50 Lee (B/Lee/40): > 73.1 | CC50 at 2 days (in vitro [13]): > 100 µM | solubility (physchem): ≥ 2000 µg/mL | reduction of viral NP protein expression (PR8 virus [10]): in a dose-dependent manner | reduction of viral RNA copies (PR8 virus [11]): in a dose-dependent manner | EC50 (A/Hong Kong/8/68 (H3N2) [4]): 5 ± 0.3 µM | EC90 (A/Hong Kong/8/68 (H3N2) [4]): 11.4 ± 0.6 µM | reduction of cytotoxicity relative to gemcitabine (MDCK cells [14]; dog, 3 days): over 60 fold | share of 2h converted to gemcitabine [15]: 17.5%

O=C(Nc1ccn([C@@H]2O[C@H](CO)[C@@H](O)C2(F)F)c(=O)n1)c1cccnc1 [Compound 3a]
CC50 at 3 days (in vitro [5]): > 300 µM | SI90 PR8 [6]: 2.7 | SI50 PR8 [6]: > 52.1 | EC90 [7, 18]: 1.4 to 16.9 µM | EC90 ([7]; Influenza A virus, PR8, PR8 and HK only, read-out: EC90 against influenza A viruses): 10.6 to 16.9 µM | EC50 [7, 22]: 3.1 to 6.2 µM | SI90 against influenza A viruses ([7]; PR8 and HK only, CC10/EC90): 2.7–4.2 | concentration of maximal antiviral efficacy ([7]; dose-response, MDCK): ~33 µM | SI50 against influenza viruses [7]: > 48.4 | SI90 HK (A/Hong Kong/8/68 (H3N2) [3]): 4.2 | SI50 HK (A/Hong Kong/8/68 (H3N2) [3]): > 48.4 | EC50 [8]: 5.8 ± 0.9 µM | EC90 [8]: 16.9 ± 7.2 µM | viability at 10 µM [8]: > 50% | EC50 (B/Lee/40; [21]): 3.1 ± 0.5 µM | activity against influenza B virus by EC90/SI90 criteria (B/Lee/40; MDCK, 90% viability criteria): not against influenza B virus | SI50 Lee (B/Lee/40): > 95.7 | EC50 (A/Hong Kong/8/68 (H3N2) [4]): 6.2 ± 1.1 µM | EC90 (A/Hong Kong/8/68 (H3N2) [4]): 10.6 ± 0.8 µM | viability at 10 µM (A/Hong Kong/8/68 (H3N2) [4]): > 50% | reduction of cytotoxicity relative to gemcitabine (MDCK cells [14]): ninefold

Nc1ccn([C@@H]2O[C@H](CO)[C@@H](O)C2(F)F)c(=O)n1 [Gemcitabine, 2′,2′-difluoro-2′-deoxycytidine]
cytotoxicity at a higher concentration (MDCK cells [1]; 100 μM, MDCK, data not shown): severe cytotoxicity | concentrations at which MDCK cell viability gradually decreased (MDCK cells [1]; incubation of MDCK cells): above 3.3 μM | CC10 (MDCK cells [1]): 5.0 ± 0.3 µM | CC10 (MDCK cells [1]; listed as gemcitabine): 5.0 µM | CC50 at 3 days [2]: > 300 µM | toxicity after oral administration [16]: liver necrosis-mediated lethal hepatotoxicity | EC50 [7, 22]: 0.3 to 0.7 µM | recovery of viability of virus-infected cells with 90% cutoff ([7]; MDCK, day 3): failed to reach cell viability above 90%; also recorded: failed to recover over 90% cell viability | SI50 against influenza viruses [7]: above 464.8 | SI50 HK (A/Hong Kong/8/68 (H3N2) [3]): > 883.5 | EC50 [8]: 0.6 µM | viability at 10 µM [8]: > 50% | EC50 (B/Lee/40; [20]): 0.7 µM | EC50 (B/Lee/40; MDCK, MOI 0.001, day 3, read-out: EC50 Lee): 0.4 µM | suppression of Caco-2 cancer cell proliferation [17]: 40–50% | EC50 (A/Hong Kong/8/68 (H3N2) [4]): 0.3 µM | viability at 10 µM (A/Hong Kong/8/68 (H3N2) [4]): > 50%

CCC(CC)COC(=O)[C@H](C)N[P@](=O)(OC[C@H]1O[C@@](C#N)(c2ccc3c(N)ncnn23)[C@H](O)[C@@H]1O)Oc1ccccc1 [Remdesivir, reference compound]
SI SARS-CoV-2 (SARS-CoV-2): > 129.0

NC(=O)c1ncn([C@@H]2O[C@H](CO)[C@@H](O)[C@H]2O)n1 [Ribavirin, reference compound]
CC50 at 3 days [2]: > 300 µM | EC50 [8]: 20.1 µM | EC90 [8]: 79.4 µM | EC50 (B/Lee/40; [20]): 11.1 ± 0.1 µM | EC90 (B/Lee/40; Influenza B virus, MDCK, 72 h): 141 ± 18.3 µM | EC50 (A/Hong Kong/8/68 (H3N2) [4]): 20.4 µM | EC90 (A/Hong Kong/8/68 (H3N2) [4]): 59.5 µM
